Experimental data reported in patent US10076519B2 (CYTOKINETICS, INC., priority 2010, dated 2018).

Test system: rabbit skeletal myofibrils (fast skeletal myofibrils)
Experiment: Activation of fast skeletal myofibrils (PUMA assay, PK/LDH-coupled ATPase at pCa25)
Format: biochemical
Conditions: AC1.4 determined according to the procedure of Example 39; reported as class symbols
Method: Preparation of Fast Skeletal Myofibrils.
Rabbit skeletal myofibrils were prepared based upon the method of Herrmann et al. (Biochem. 32(28):7255-7263(1993). Myofibrils were prepared from rabbit psoas muscle purchased from Pel-Freez Biologicals (Arkansas) within 2 days of ordering, stored on ice. Minced muscle was homogenized in 10 volumes of ice-cold “standard” buffer (50 mM Tris, pH 7.4, 0.1M potassium acetate, 5 mM KCl, 2 mM DTT, 0.2 mM PMSF, 10 μM leupeptin, 5 μM pepstatin, and 0.5 mM sodium azide) containing 5 mM EDTA and 0.5% Triton X-100 using an Omni-Macro homogenizer. Myofibrils were recovered by low speed centrifugation (3000 rpm for 10 minutes) and washed 2 times in the Triton X-100 containing buffer to ensure removal of cellular membrane. Following the Triton washes, myofibrils were washed 3 times in “standard” buffer containing 2 mM magnesium acetate. A final wash in assay buffer (12 mM PIPES, pH 6.8, 60 mM KCl, 1 mM DTT) was performed and brought to 10% sucrose for flash freezing in liquid nitrogen and storage at −80° C.
Activation of Fast Skeletal Myofibrils.
Fast fiber activators were identified by measuring the enzymatic activity of muscle myofibril preparations using the proprietary PUMA™ (see, e.g., U.S. Pat. Nos. 6,410,254, 6,743,599, 7,202,051, and 7,378,254) assay system. Myofibril preparations consisted of rabbit skeletal muscle (approximately 90% fast fibers) that had been mechanically homogenized and washed with a detergent (triton X-100) to remove cellular membranes. This preparation retained all of the sarcomeric components in a native conformation and the enzymatic activity was still regulated by calcium. Compounds were tested using a myofibril suspension and a level of calcium sufficient to increase enzymatic activity of the myofibrils to 25% of their maximal rate (termed pCa25). Enzymatic activity was tracked via a pyruvate kinase and lactate dehydrogenase-coupled enzyme system. This assay regenerates myosin-produced ADP into ATP by oxidizing NADH, producing an absorbance change at 340 nm. The buffering system was 12 mM Pipes, 2 mM MgCl2, 1 mM DTT at pH 6.8 (PM12 buffer).
Using procedures similar to those described herein, utilizing reagents and intermediates commercially available (e.g., Sigma-Aldrich, St. Louis, Mo.) or readily synthesized by one of skill in the art, the compounds in Table 2 were synthesized, characterized and tested. AC1.4 values were determined according to the procedure described in Example 39, and the reported median AC1.4 values are as follows: A=<1 uM; B=1-10 uM; C=10-20 uM; D=>20 uM.

Structure (SMILES) | Mean AC1.4
CC(C)(O)c1cccc(C(C)(C)CNc2ccc(-c3ccc4[nH]nc(N)c4c3)nn2)c1 | C (C=10-20 uM)
CC(C)(CNc1ccc(-c2ccc3[nH]nc(N)c3c2)nn1)c1ccc(CCO)cc1 | B (B=1-10 uM)
CC(C)(O)c1ccc(C(C)(C)CNc2ccc(-c3ccc4[nH]nc(N)c4c3)nn2)cc1 | D (D=>20 uM)
Oc1ccnc(C2(CNc3ccc(-c4ccc5[nH]ncc5c4)nn3)CCC2)c1 | D (D=>20 uM)
Oc1ccnc(C2(CNc3ccc(-c4ccc5cn[nH]c5c4)nn3)CCC2)c1 | D (D=>20 uM)
CC(C)(CNc1ccc(-c2ccc3nc(N)[nH]c(=O)c3c2)nn1)c1ccc(F)cc1 | A (A=<1 uM)
CC(C)(CNc1ccc(-c2cc(=O)[nH]c(N)n2)nn1)c1ccc(F)cc1 | B (B=1-10 uM)
CC(C)(CNc1ccc(-c2ccc3c(=O)[nH]c(N)nc3c2)nn1)c1ccc(F)cc1 | C (C=10-20 uM)
NC(=O)c1cccc(-c2ccc(NCC3(c4ncccc4F)CCC3)nn2)c1F | B (B=1-10 uM)
CC(C)(CNc1ccc(-c2ccc3[nH]nc(N)c3c2)nn1)c1cccc(O)c1 | B (B=1-10 uM)
CC(C)(CNc1ccc(-c2ccc3[nH]nc(N)c3c2)nn1)c1cccc(C#N)c1 | A (A=<1 uM)
CC(C)(CNc1ccc(-c2ccc3[nH]nc(N)c3c2)nn1)c1cccc(C(N)=O)c1 | D (D=>20 uM)
NC(=O)c1cccc(-c2ccc(NCC3CCCc4ccccc43)nn2)c1 (stereo not shown) | B (B=1-10 uM)
NC(=O)c1cccc(-c2ccc(NCCc3ccccc3Cl)nn2)c1 | B (B=1-10 uM)
CCCC(CNc1ccc(-c2cccc(C(N)=O)c2)nn1)c1ccccc1Cl (stereo not shown) | B (B=1-10 uM)
CC(CNc1ccc(-c2cccc(C(N)=O)c2)nn1)c1ccccc1F (stereo not shown) | B (B=1-10 uM)
CC(CNc1ccc(-c2cccc(C(N)=O)c2)nn1)N1CCCCC1=O (stereo not shown) | D (D=>20 uM)
CC(CNc1ccc(-c2cccc(C(N)=O)c2)nn1)N1CCCC1=O (stereo not shown) | D (D=>20 uM)
N#Cc1cccc(-c2ccc(NCCc3ccc(Cl)cc3Cl)nn2)c1 | D (D=>20 uM)
NC(=O)c1cccc(-c2ccc(NCCc3ccc(Cl)cc3Cl)nn2)c1 | C (C=10-20 uM)
NC(=O)c1cccc(-c2ccc(NCCc3ccc(F)cc3F)nn2)c1 | D (D=>20 uM)
NC(=O)c1cccc(-c2ccc(NCCc3cccc(Cl)c3)nn2)c1 | B (B=1-10 uM)
NC(=O)c1cccc(-c2ccc(NCCc3ccc(Cl)c(Cl)c3)nn2)c1 | C (C=10-20 uM)
NC(=O)c1cccc(-c2ccc(NCCc3ccc(F)c(F)c3)nn2)c1 | C (C=10-20 uM)
NC(=O)c1cccc(-c2ccc(NCCc3cc(F)cc(F)c3)nn2)c1 | D (D=>20 uM)
NC(=O)c1cccc(-c2ccc(NCCc3ccc(Cl)cc3)nn2)c1 | D (D=>20 uM)

Structure (SMILES) | Mean AC1.4
NC(=O)c1cccc(-c2ccc(NCCc3ccc(F)cc3)nn2)c1 | D (D=>20 uM)
COc1ccc(CCNc2ccc(-c3cccc(C(N)=O)c3)nn2)cc1 | D (D=>20 uM)
Cc1ccc(CCNc2ccc(-c3cccc(C(N)=O)c3)nn2)cc1 | C (C=10-20 uM)
NC(=O)c1cccc(-c2ccc(NCC(CC3OCCO3)c3ccccc3F)nn2)c1 (stereo not shown) | D (D=>20 uM)
C[C@@H](CNc1ccc(-c2cccc(C(N)=O)c2)nn1)c1ccc(F)cc1 | B (B=1-10 uM)
C[C@H](CNc1ccc(-c2cccc(C(N)=O)c2)nn1)c1ccc(F)cc1 | B (B=1-10 uM)
NC(=O)c1cccc(-c2ccc(N[C@@H]3C[C@H]3c3ccccc3)nn2)c1 | D (D=>20 uM)
NS(=O)(=O)c1cccc(-c2ccc(NCC3(c4ncccc4F)CCC3)nn2)c1 | A (A=<1 uM)
NC(=O)c1cccc(-c2ccc(NCC3(c4ncccc4F)CCC3)nn2)c1 | A (A=<1 uM)
NC(=O)c1cccc(-c2ccc(NCC3(c4ccc(F)cn4)CCC3)nn2)c1 | B (B=1-10 uM)
CC(C)(C)OC(=O)N(CC(C)(C)c1ncccc1F)c1ccc(-c2cccc(C(N)=O)c2)nn1 | D (D=>20 uM)
CC(C)(C)OC(=O)N(CC(C)(C)c1ccc(F)cc1)c1ccc(-c2cc(C(N)=O)ccc2F)nn1 | D (D=>20 uM)
CC(C)(C)OC(=O)N(CC(C)(C)c1ccc(F)cc1)c1ccc(-c2cccc(C(N)=O)c2)nn1 | D (D=>20 uM)
NC(=O)c1ccc(-c2ccc(NCC3(c4ncccc4F)CCC3)nn2)c(F)c1 | B (B=1-10 uM)
CC(C)(CNc1ccc(-c2ccc3[nH]nc(N)c3c2)nn1)c1ccc(C(N)=O)cc1 | D (D=>20 uM)
CC(C)(CNc1ccc(-c2ccc3[nH]nc(N)c3c2)nn1)c1ccc(C#N)cc1 | A (A=<1 uM)
NC(=O)c1ccc(-c2ccc(NCC3(c4ncccc4F)CCC3)nn2)cc1 | B (B=1-10 uM)
CC(C)(CNc1ccc(C(=O)N2CCN(C(N)=O)CC2)nn1)c1ccc(F)cc1 | D (D=>20 uM)
NC(=O)c1ccc(F)c(-c2ccc(NCC3(c4ccccn4)CCC3)nn2)c1 | A (A=<1 uM)
NC(=O)c1ccc(F)c(-c2ccc(NCC3(c4ncccc4F)CCC3)nn2)c1 | A (A=<1 uM)
COc1cccnc1C1(CNc2ccc(-c3cc(C(N)=O)ccc3F)nn2)CCC1 | B (B=1-10 uM)
NC(=O)c1ccc(F)c(-c2ccc(NCC3(c4cc(O)ccn4)CCC3)nn2)c1 | D (D=>20 uM)
COc1ccnc(C2(CNc3ccc(-c4cc(C(N)=O)ccc4F)nn3)CCC2)c1 | B (B=1-10 uM)
NC(=O)c1ccc(F)c(-c2ccc(NCC3(c4cccc(O)n4)CCC3)nn2)c1 | D (D=>20 uM)
COc1cccc(C2(CNc3ccc(-c4cc(C(N)=O)ccc4F)nn3)CCC2)n1 | A (A=<1 uM)
CC(C)(CNc1ccc(-c2ccc3[nH]c(=O)[nH]c3c2)nn1)c1ccccc1CO | B (B=1-10 uM)

Structure (SMILES) | Mean AC1.4
CC(C)(CNc1ccc(-c2ccc3[nH]c(=O)[nH]c3c2)nn1)c1ccccc1F | A (A=<1 uM)
CC(C)(CNc1ccc(-c2ccc3oc(=O)[nH]c3c2)nn1)c1ccc(F)cc1 | B (B=1-10 uM)
CC(C)(Cc1ccc(F)cc1)Nc1ccc(-c2ccc3[nH]c(=O)[nH]c3c2)nn1 | D (D=>20 uM)
CC(C)(CNc1ccc(-c2ccc3[nH]c(=O)[nH]c3c2)nn1)c1ccccc1 | A (A=<1 uM)
CC(C)(C)CNc1ccc(-c2ccc3[nH]c(=O)[nH]c3c2)nn1 | D (D=>20 uM)
O=c1[nH]c2ccc(-c3ccc(NCC4(c5ncccc5F)CCC4)nn3)cc2[nH]1 | B (B=1-10 uM)
O=c1ncc(-c2ccc(NCC3(c4ccc(F)cc4)CCC3)nn2)c[nH]1 | B (B=1-10 uM)
O=c1[nH]c2ccc(-c3ccc(NCC4(c5ccc(F)cc5)CC4)nn3)cc2[nH]1 | A (A=<1 uM)
CC(C)(CNc1ccc(-c2ccc3[nH]c(=O)oc3c2)nn1)c1ccc(F)cc1 | A (A=<1 uM)
CC(C)(CNc1ccc(-c2ccc3nc[nH]c(=O)c3c2)nn1)c1ccc(F)cc1 | B (B=1-10 uM)
CC(C)(C)OC(=O)N(CC(C)(C)c1ccc(F)cc1)c1ccc(-c2cc(=O)[nH]c(N)n2)nn1 | B (B=1-10 uM)
CC(C)(CNc1ccc(-c2ccc3[nH]nc(N)c3c2)nn1)c1ccccc1CO | B (B=1-10 uM)
CN(C)CCc1cccc(C(C)(C)CNc2ccc(-c3ccc4[nH]nc(N)c4c3)nn2)c1 | D (D=>20 uM)
CC(C)(CNc1ccc(-c2ccc3[nH]nc(N)c3c2)nn1)c1cccc(CO)c1 | B (B=1-10 uM)
CS(=O)(=O)Nc1cccc(-c2ccc(NCC3(c4ncccc4F)CCC3)nn2)c1 | B (B=1-10 uM)
CC(C)(CNc1ccc(-c2ccc3[nH]nc(N)c3c2)nn1)c1ccc(CO)cc1 | D (D=>20 uM)
CS(=O)(=O)Nc1ccc(-c2ccc(NCC3(c4ncccc4F)CCC3)nn2)cc1 | B (B=1-10 uM)
CC1(C)CC1(CNc1ccc(-c2ccc3[nH]nc(N)c3c2)nn1)c1ccccc1 (stereo not shown) | A (A=<1 uM)
Nc1n[nH]c2ccc(-c3ccc(NCC4(c5ccccc5)CCC4)nn3)cc12 | A (A=<1 uM)
Nc1n[nH]c2ccc(-c3ccc(NCC4(c5ccccc5)CC4)nn3)cc12 | A (A=<1 uM)
CC(C)(CNc1ccc(CO)nn1)c1ccc(F)cc1 | D (D=>20 uM)
CN(C)Cc1cccc(C(C)(C)CNc2ccc(-c3ccc4[nH]nc(N)c4c3)nn2)c1 | D (D=>20 uM)
CN(C)Cc1ccc(C(C)(C)CNc2ccc(-c3ccc4[nH]nc(N)c4c3)nn2)cc1 | D (D=>20 uM)
CC(C)(C)OC(=O)N1CCN(C(=O)c2ccc(NCC(C)(C)c3ccc(F)cc3)nn2)C(CO)C1 (stereo not shown) | D (D=>20 uM)
